In paper PMC5909127, “Optimization of a “bump-and-hole” approach to allele-selective BET bromodomain inhibition” (Chemical Science, 2018):

Legend:
[1] = system: L/V BET bromodomains (BD1 and BD2 of BRD2, BRD3 and BRD4); experiment: competitive AlphaLISA (Bio-JQ1 displacement); format: binding, human
BRD2 BD1 L/V = BRD2 BD1 L/V (Homo sapiens, UniProt P25440, L110V); experiment: competitive AlphaLISA; format: binding
Intrinsic Clearance = details: mouse liver microsomes
BRD2 BD2 L/V = BRD2 BD2 L/V (Homo sapiens, UniProt P25440, L383V); experiment: competitive AlphaLISA; format: binding
BRD3 BD1 L/V = BRD3 BD1 L/V (Homo sapiens, UniProt Q15059, L70V); experiment: competitive AlphaLISA; format: binding
BRD2 BD1 WT = BRD2 BD1 WT (Homo sapiens, UniProt P25440); experiment: competitive AlphaLISA; format: binding
BRD3 BD2 L/V = BRD3 BD2 L/V (Homo sapiens, UniProt Q15059, L345V); experiment: competitive AlphaLISA; format: binding
Plasma Half-life = details: BALB/c, mouse, pH 7.4
BRD3 BD1 WT = BRD3 BD1 WT (Homo sapiens, UniProt Q15059); experiment: competitive AlphaLISA; format: binding
MC4 (h) = MC4 (h) (Homo sapiens, UniProt P32245); experiment: CEREP ExpresSProfile; details: read-out: Mean % of control specific binding (±SD)
Excerpt: (§1) Receptor Reference Compound Mean % of control specific
Receptor & Ion-Channel Screening
CEREP ExpresSProfile panel

H1 (h) = H1 (h) (Homo sapiens, UniProt P35367); experiment: CEREP ExpresSProfile; details: read-out: Mean % of control specific binding (±SD)
ETA (h) = ETA (h) (Homo sapiens, UniProt P25101); experiment: CEREP ExpresSProfile; details: read-out: Mean % of control specific binding (±SD)
Excerpt: as §1
Receptor & Ion-Channel Screening
CEREP ExpresSProfile panel

5-HT1A (h) = 5-HT1A (h) (Homo sapiens, UniProt P08908); experiment: CEREP ExpresSProfile; details: read-out: Mean % of control specific binding (±SD)
Y2 (h) = Y2 (h) (Homo sapiens, UniProt P49146); experiment: CEREP ExpresSProfile; details: read-out: Mean % of control specific binding (±SD)
mu (MOP) (h) = mu (MOP) (h) (Homo sapiens, UniProt P35372); experiment: CEREP ExpresSProfile; details: read-out: Mean % of control specific binding (±SD)
KV channel = experiment: CEREP ExpresSProfile; format: binding; details: 1 µM
Excerpt: as §1
Receptor & Ion-Channel Screening
CEREP ExpresSProfile panel

5-HT transporter (h) = 5-HT transporter (h) (Homo sapiens, UniProt P31645); experiment: CEREP ExpresSProfile; details: read-out: Mean % of control specific binding (±SD)
V1a (h) = V1a (h) (Homo sapiens, UniProt P37288); experiment: CEREP ExpresSProfile; details: read-out: Mean % of control specific binding (±SD)
B2 (h) = B2 (h) (Homo sapiens, UniProt P30411); experiment: CEREP ExpresSProfile; details: read-out: Mean % of control specific binding (±SD)
alpha 1 (non-selective) = experiment: CEREP ExpresSProfile; format: binding; details: 1 µM
NOP (ORL1) (h) = NOP (ORL1) (h) (Homo sapiens, UniProt P41146); experiment: CEREP ExpresSProfile; details: read-out: Mean % of control specific binding (±SD)
[2] = molecular target: GFP-labelled L/V BRD4 in U2OS cells (Homo sapiens, UniProt O60885, L387V/L94V); experiment: FRAP; details: 200 nM, 2 μM SAHA
SKCa channel = experiment: CEREP ExpresSProfile; format: binding; details: 1 µM
M3 (h) = M3 (h) (Homo sapiens, UniProt P20309); experiment: CEREP ExpresSProfile; details: read-out: Mean % of control specific binding (±SD)
A1 (h) = A1 (h) (Homo sapiens, UniProt P30542); experiment: CEREP ExpresSProfile; details: read-out: Mean % of control specific binding (±SD)
Excerpt: as §1
Receptor & Ion-Channel Screening
CEREP ExpresSProfile panel

[3] = system: 55 receptors, transporters and ion channels; experiment: receptor, transporter and ion channel screen; format: binding; details: 1 μM, whole panel with the exception of MT1
A2A (h) = A2A (h) (Homo sapiens, UniProt P29274); experiment: CEREP ExpresSProfile; details: read-out: Mean % of control specific binding (±SD)
CCR1 (h) = CCR1 (h) (Homo sapiens, UniProt P32246); experiment: CEREP ExpresSProfile; details: read-out: Mean % of control specific binding (±SD)
sst (non-selective) = experiment: CEREP ExpresSProfile; format: binding; details: 1 µM
[4] = molecular target: norepinephrine transporter (h) (Homo sapiens, UniProt P23975); experiment: CEREP ExpresSProfile; details: read-out: Mean % of control specific binding (±SD)
Excerpt: as §1
Receptor & Ion-Channel Screening
CEREP ExpresSProfile panel

5-HT2B (h) = 5-HT2B (h) (Homo sapiens, UniProt P41595); experiment: CEREP ExpresSProfile; details: read-out: Mean % of control specific binding (±SD)
BZD (central) = experiment: CEREP ExpresSProfile; format: binding; details: 1 µM
CB1 (h) = CB1 (h) (Homo sapiens, UniProt P21554); experiment: CEREP ExpresSProfile; details: read-out: Mean % of control specific binding (±SD)
Excerpt: as §1
Receptor & Ion-Channel Screening
CEREP ExpresSProfile panel

M1 (h) = M1 (h) (Homo sapiens, UniProt P11229); experiment: CEREP ExpresSProfile; details: read-out: Mean % of control specific binding (±SD)
5-HT5a (h) = 5-HT5a (h) (Homo sapiens, UniProt P47898); experiment: CEREP ExpresSProfile; details: read-out: Mean % of control specific binding (±SD)
NK2 (h) = NK2 (h) (Homo sapiens, UniProt P21452); experiment: CEREP ExpresSProfile; details: read-out: Mean % of control specific binding (±SD)
D2S (h) = D2S (h) (Homo sapiens, UniProt P14416); experiment: CEREP ExpresSProfile; details: read-out: Mean % of control specific binding (±SD)
Na+ channel (site 2) = experiment: CEREP ExpresSProfile; format: binding; details: 1 µM
kappa (KOP) = kappa (KOP) (Rattus norvegicus, UniProt P34975); experiment: CEREP ExpresSProfile; details: read-out: Mean % of control specific binding (±SD)
Excerpt: as §1
Receptor & Ion-Channel Screening
CEREP ExpresSProfile panel

MV4-11 = experiment: WT Cell Cytotoxicity (CellTiter-Glo); details: MV4-11 and HL-60
[5] = WT Cell Cytotoxicity (CellTiter-Glo); details: human, MV4-11 cells (BET-dependent AML cell line)
beta 2 (h) = beta 2 (h) (Homo sapiens, UniProt P07550); experiment: CEREP ExpresSProfile; details: read-out: Mean % of control specific binding (±SD)
delta (DOP) (h) = delta (DOP) (h) (Homo sapiens, UniProt P41143); experiment: CEREP ExpresSProfile; details: read-out: Mean % of control specific binding (±SD)
Excerpt: as §1
Receptor & Ion-Channel Screening
CEREP ExpresSProfile panel

M2 (h) = M2 (h) (Homo sapiens, UniProt P08172); experiment: CEREP ExpresSProfile; details: read-out: Mean % of control specific binding (±SD)

Sequence of 5-HT transporter (h) (P31645 whole entry): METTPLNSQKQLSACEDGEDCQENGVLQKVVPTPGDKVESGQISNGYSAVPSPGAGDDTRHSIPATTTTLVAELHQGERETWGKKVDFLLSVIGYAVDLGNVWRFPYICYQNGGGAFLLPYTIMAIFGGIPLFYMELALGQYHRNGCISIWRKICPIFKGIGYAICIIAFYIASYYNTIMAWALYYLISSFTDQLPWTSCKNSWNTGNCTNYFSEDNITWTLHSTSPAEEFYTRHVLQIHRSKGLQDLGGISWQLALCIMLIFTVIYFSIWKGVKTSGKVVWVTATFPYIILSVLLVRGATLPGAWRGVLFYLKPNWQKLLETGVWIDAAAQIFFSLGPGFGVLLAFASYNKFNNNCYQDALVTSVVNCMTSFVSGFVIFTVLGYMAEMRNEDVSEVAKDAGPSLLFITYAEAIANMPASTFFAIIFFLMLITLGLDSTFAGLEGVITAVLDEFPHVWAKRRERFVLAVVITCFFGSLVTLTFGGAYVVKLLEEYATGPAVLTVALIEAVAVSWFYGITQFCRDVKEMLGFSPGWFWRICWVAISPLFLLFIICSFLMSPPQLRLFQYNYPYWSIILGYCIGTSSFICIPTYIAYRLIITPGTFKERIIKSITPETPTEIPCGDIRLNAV
Sequence of BRD3 BD1 WT (Q15059 24-144): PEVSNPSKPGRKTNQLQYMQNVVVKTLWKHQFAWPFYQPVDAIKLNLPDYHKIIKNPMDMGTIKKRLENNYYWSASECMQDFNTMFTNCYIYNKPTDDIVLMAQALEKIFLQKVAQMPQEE
Sequence of kappa (KOP) (P34975 whole entry): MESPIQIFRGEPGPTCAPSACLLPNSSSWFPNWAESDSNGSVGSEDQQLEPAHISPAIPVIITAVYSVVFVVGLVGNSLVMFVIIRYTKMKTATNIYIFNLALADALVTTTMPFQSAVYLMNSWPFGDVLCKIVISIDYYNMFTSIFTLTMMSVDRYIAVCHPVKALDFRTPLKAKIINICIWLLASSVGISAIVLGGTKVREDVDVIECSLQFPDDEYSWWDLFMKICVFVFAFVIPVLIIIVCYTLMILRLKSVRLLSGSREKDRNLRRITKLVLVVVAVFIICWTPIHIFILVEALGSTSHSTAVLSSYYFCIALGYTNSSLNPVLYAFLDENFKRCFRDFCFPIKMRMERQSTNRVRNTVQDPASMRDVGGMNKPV
Sequence of V1a (h) (P37288 whole entry): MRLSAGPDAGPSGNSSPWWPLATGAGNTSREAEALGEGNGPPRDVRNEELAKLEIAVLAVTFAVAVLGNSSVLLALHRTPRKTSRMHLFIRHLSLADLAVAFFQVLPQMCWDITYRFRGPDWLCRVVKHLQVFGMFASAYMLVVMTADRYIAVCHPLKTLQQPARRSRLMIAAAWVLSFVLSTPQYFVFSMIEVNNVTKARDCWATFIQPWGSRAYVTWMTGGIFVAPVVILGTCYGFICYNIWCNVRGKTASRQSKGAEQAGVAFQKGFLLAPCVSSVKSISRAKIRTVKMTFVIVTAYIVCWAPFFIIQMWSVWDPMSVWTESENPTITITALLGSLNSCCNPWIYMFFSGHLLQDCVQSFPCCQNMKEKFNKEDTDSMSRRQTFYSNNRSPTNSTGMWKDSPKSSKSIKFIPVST
Sequence of delta (DOP) (h) (P41143 whole entry): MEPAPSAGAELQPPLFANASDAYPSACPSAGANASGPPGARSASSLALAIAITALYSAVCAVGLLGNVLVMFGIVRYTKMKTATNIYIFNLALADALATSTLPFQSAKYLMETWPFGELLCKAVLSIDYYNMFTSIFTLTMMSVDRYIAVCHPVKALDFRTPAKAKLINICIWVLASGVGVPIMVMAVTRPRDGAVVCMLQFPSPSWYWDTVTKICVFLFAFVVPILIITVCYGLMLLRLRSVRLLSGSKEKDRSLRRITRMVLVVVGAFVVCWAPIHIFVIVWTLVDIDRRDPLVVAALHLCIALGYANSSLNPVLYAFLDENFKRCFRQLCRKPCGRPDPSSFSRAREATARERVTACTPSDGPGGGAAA
Sequence of B2 (h) (P30411 whole entry): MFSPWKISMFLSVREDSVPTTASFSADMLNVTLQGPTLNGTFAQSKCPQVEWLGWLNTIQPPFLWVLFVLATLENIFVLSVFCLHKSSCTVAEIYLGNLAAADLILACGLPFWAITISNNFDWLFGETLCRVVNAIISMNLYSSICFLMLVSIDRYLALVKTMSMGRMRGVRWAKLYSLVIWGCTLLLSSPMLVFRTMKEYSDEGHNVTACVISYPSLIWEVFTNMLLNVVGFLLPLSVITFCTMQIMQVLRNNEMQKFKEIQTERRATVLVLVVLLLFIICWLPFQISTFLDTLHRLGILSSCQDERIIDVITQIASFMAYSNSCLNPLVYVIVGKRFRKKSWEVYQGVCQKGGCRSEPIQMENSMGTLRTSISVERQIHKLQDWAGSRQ
Sequence of ETA (h) (P25101 21-427): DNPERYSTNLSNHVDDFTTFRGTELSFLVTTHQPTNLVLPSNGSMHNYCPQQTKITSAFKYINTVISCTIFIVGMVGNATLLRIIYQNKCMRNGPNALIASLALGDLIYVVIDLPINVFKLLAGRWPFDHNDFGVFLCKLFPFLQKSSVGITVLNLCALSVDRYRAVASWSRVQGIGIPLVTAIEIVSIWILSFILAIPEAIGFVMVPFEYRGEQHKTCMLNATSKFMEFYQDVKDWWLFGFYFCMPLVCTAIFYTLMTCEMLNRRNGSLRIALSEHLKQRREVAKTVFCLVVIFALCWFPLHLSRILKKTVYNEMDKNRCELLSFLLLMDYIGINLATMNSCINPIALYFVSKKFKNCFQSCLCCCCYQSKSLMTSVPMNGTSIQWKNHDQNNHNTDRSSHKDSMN
Sequence of 5-HT5a (h) (P47898 whole entry): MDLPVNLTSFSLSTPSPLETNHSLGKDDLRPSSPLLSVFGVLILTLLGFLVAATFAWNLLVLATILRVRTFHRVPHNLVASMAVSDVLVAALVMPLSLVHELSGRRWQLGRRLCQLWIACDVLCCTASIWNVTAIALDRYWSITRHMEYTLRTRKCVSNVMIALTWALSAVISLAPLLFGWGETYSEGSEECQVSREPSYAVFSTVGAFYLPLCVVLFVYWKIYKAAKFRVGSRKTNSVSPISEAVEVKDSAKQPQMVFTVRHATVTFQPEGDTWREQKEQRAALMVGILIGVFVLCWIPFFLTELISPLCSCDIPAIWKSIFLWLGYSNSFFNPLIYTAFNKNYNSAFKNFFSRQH
Sequence of NOP (ORL1) (h) (P41146 whole entry): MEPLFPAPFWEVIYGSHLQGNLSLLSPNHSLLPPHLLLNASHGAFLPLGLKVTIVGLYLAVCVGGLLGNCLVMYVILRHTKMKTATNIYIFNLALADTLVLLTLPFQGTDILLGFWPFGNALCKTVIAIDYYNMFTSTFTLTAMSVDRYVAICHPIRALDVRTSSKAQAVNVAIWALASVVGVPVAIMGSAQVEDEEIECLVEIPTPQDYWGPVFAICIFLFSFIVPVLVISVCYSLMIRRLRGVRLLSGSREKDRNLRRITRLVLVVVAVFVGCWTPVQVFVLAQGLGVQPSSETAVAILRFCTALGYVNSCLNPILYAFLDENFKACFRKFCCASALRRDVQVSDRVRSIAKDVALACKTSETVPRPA
Sequence of BRD3 BD1 L/V (Q15059 24-144 L70V limits assumed): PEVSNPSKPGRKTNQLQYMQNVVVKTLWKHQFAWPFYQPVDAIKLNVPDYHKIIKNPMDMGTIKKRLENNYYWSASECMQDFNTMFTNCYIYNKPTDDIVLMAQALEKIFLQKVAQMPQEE
Sequence of CB1 (h) (P21554 whole entry): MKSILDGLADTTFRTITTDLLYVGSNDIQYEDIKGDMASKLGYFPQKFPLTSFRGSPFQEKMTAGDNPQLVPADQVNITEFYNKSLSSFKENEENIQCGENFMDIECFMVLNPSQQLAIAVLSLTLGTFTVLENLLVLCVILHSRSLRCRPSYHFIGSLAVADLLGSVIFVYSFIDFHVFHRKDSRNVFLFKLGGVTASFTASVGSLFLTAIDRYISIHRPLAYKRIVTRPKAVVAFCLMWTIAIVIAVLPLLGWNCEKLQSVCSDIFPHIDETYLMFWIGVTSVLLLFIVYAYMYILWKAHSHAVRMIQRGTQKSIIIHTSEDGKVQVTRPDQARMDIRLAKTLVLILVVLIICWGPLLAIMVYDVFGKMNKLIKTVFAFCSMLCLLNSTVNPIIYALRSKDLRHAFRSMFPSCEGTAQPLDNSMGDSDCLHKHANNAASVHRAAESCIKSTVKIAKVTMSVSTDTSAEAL
Sequence of norepinephrine transporter (h) (P23975 whole entry): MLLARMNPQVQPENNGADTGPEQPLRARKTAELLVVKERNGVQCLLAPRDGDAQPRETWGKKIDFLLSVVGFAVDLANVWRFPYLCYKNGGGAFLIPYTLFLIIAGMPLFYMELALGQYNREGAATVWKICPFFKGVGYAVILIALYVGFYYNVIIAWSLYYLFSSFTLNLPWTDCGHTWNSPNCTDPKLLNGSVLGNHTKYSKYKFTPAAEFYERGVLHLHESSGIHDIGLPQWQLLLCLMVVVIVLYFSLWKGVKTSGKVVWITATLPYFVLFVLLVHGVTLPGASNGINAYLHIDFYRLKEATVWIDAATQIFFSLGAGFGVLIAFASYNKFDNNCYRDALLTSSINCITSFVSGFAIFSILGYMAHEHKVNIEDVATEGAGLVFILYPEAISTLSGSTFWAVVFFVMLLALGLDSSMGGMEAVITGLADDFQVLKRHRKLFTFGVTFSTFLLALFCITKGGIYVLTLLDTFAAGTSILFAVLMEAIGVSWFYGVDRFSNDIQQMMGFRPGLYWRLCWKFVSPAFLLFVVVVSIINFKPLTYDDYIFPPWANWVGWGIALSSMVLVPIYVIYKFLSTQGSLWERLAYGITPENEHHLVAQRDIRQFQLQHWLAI
Sequence of BRD2 BD1 L/V (P25440 71-176 L110V limits assumed): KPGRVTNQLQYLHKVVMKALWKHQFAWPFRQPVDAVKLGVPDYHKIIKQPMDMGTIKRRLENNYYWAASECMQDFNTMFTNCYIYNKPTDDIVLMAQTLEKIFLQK
Sequence of BRD3 BD2 L/V (Q15059 306-416 L345V limits assumed): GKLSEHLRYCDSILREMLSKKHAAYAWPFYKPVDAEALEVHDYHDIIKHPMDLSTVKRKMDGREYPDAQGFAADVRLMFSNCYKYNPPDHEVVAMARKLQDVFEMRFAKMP

CC[C@@H](C(=O)OC)[C@@H]1N=C(c2ccc(Cl)cc2)c2ccc(OC)cc2-n2c(C)nnc21 (racemic) [Compound 8]
AlphaLISA pIC50 ± SD Δ ([1]; L/V minus WT): 1.4 ± 0.2 | AlphaLISA pIC50 ± SD L/V ([1]; mean and SD of all somatic bromodomains, active enantiomer concentration): 6.8 ± 0.2 | IC50 (BRD2 BD1 L/V): 316 nM | CL int (Intrinsic Clearance): 4.1 ml min^–1 g^–1 | IC50 (BRD2 BD2 L/V): 200 nM | IC50 (BRD3 BD1 L/V): 126 nM | IC50 (BRD2 BD1 WT): 10000 nM | IC50 (BRD3 BD2 L/V): 79.4 nM | half-life at 50 µM (Plasma Half-life): > 3 h | IC50 (BRD3 BD1 WT): 2510 nM

COC(=O)[C@H](C)[C@@H]1N=C(c2ccc(Cl)cc2)c2ccc(OC)cc2-n2c(C)nnc21 [(2R,3S)-7]
remaining activity at 1 µM (MC4 (h)): 89% | remaining activity at 1 µM (H1 (h)): 108% | remaining activity at 1 µM (ETA (h)): 87% | remaining activity at 1 µM (5-HT1A (h)): 104% | remaining activity at 1 µM (Y2 (h)): 110% | remaining activity at 1 µM (mu (MOP) (h)): 119% | Mean % of control specific binding (±SD) (KV channel): 100 (0) % | remaining activity at 1 µM (5-HT transporter (h)): 96% | remaining activity at 1 µM (V1a (h)): 102% | remaining activity at 1 µM (B2 (h)): 98% | Mean % of control specific binding (±SD) (alpha 1 (non-selective)): 99 (12) % | remaining activity at 1 µM (NOP (ORL1) (h)): 94% | displacement of L/V BRD4 (FRAP) [2]: almost complete displacement | Mean % of control specific binding (±SD) (SKCa channel): 103 (10) % | remaining activity at 1 µM (M3 (h)): 101% | remaining activity at 1 µM (A1 (h)): 100% | inhibition [3]: no more than 20% | remaining activity at 1 µM (A2A (h)): 99% | remaining activity at 1 µM (CCR1 (h)): 102% | Mean % of control specific binding (±SD) (sst (non-selective)): 108 (6) % | remaining activity at 1 µM [4]: 88% | remaining activity at 1 µM (5-HT2B (h)): 109% | Mean % of control specific binding (±SD) (BZD (central)): 105 (10) % | remaining activity at 1 µM (CB1 (h)): 90% | remaining activity at 1 µM (M1 (h)): 104% | remaining activity at 1 µM (5-HT5a (h)): 109% | remaining activity at 1 µM (NK2 (h)): 101% | remaining activity at 1 µM (D2S (h)): 95% | Mean % of control specific binding (±SD) (Na+ channel (site 2)): 105 (6) % | remaining activity at 1 µM (kappa (KOP)): 96% | cytotoxicity (MV4-11): no cytotoxicity below 1 μM | CC50 at 48 h [5]: 2510 nM | remaining activity at 1 µM (beta 2 (h)): 105% | remaining activity at 1 µM (delta (DOP) (h)): 100% | remaining activity at 1 µM (M2 (h)): 105%
